Laboratory results from patent publication US8889670B2, “Heterocyclic compounds which modulate the CB2 receptor” (Boehringer Ingelheim International GmbH, priority 2009, dated 2014).
Where two headings read alike, the source gives them in different places.

Molecular target: T1, human CB2R (Homo sapiens, UniProt P34972)
T1 construct: host or cells: CHO cells
Assay: CB2R mediated modulation of cAMP synthesis (forskolin-stimulated cAMP, CHO cells expressing human CB2R)
Type: cell-based
Experimental: B. CB2R Mediated Modulation of cAMP Synthesis:
Compounds of the invention were evaluated for their CB2 agonist or inverse agonistic activity in accordance with the following experimental method.
CHO cells expressing human CB2R (Euroscreen) were plated at a density of 5000 cells per well in 384 well plates and incubated overnight at 37° C. After removing the media, the cells were treated with test compounds diluted in stimulation buffer containing 1 mM IBMX, 0.25% BSA and 10 uM Forskolin. The assay was incubated for 30 minutes at 37° C. Cells were lysed and the cAMP concentration was measured using DiscoverX-XS cAMP kit, following the manufacturer's protocol. In this setting, agonists will decrease forskolin induced production of cAMP while inverse agonists will further increase forskolin induced production of cAMP. EC50 of agonists were calculated as follows. The maximal amount of cAMP produced by forskolin compared to the level of cAMP inhibited by 1 uM CP55940 is defined as 100%. […] Data was analyzed using a four-parameter logistic model. (Model 205 of XLfit 4.0).

[1] = agonist EC50, inhibition of forskolin-stimulated cAMP synthesis, CHO cells expressing human CB2R, mean, read-out: CB2 CAMP @ EC50 nM (mean)

T1 sequence (P34972 whole entry): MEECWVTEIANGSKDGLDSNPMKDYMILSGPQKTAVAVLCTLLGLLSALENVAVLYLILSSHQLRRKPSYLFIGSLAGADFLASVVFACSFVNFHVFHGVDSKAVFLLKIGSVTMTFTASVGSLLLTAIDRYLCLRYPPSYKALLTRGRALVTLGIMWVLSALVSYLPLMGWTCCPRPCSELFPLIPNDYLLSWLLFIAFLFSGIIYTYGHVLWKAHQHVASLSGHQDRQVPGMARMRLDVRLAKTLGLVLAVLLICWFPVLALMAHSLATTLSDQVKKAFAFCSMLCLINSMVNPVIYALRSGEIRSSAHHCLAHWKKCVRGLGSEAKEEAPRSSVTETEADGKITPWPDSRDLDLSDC

Structure (SMILES) | EC50 [1] | EC50
CC(C)(C)c1cc(NC(=O)C2CCCCN2C(=O)c2ccc(C(F)(F)F)cc2)no1 (stereo not shown) [1-(4-Trifluoromethyl-benzoyl)-piperidine-2-carboxylic acid (5-tert-butyl-isoxazol-3-yl)-amide] | 395 nM | 
CC(C)(C)c1nnc(NC(=O)[C@@H]2CCCCN2CC2CCOCC2)s1 [(S)-1-(Tetrahydro-pyran-4-ylmethyl)-piperidine-2-carboxylic acid (5-tert-butyl-1,3,4-thiadiazol-2-yl)-amide] | 1.6 nM | 
CC(C)(C)OC(=O)N1CCCC[C@H]1C(=O)Nc1cc(C(C)(C)C)on1 [(S)-2-(5-tert-Butyl-isoxazol-3-ylcarbamoyl)-piperidine-1-carboxylic acid tert-butyl ester] | 279 nM | 
O=C(Nc1nc2cc(F)c(F)cc2s1)[C@@H]1CCCCN1C(=O)N1CCS(=O)(=O)CC1 [(S)-1-(1,1-Dioxo-1λ^6-thiomorpholine-4-carbonyl)-piperidine-2-carboxylic acid (5,6-difluoro-benzothiazol-2-yl)-amide] | 448 nM | 
CC(C)(C)OC(=O)N1CCCC[C@H]1C(=O)Nc1nnc(C(C)(C)C)s1 [(S)-2-(5-tert-Butyl-1,3,4-thiadiazol-2-ylcarbamoyl)-piperidine-1-carboxylic acid tert-butyl ester] | 495 nM | 
CC(C)(C)c1cc(NC(=O)[C@@H]2CCCCN2C(=O)CC2CCS(=O)(=O)C2)no1 (stereo partly drawn) [(S)-1-[2-(1,1-Dioxo-tetrahydro-1λ^6-thiophen-3-yl)-acetyl]-piperidine-2-carboxylic acid (5-tert-butyl-isoxazol-3-yl)-amide] |  | 7.7 nM
O=C(Nc1nc(-c2ccc(F)cc2F)cs1)[C@@H]1CCCCN1C(=O)N1CCS(=O)(=O)CC1 [(S)-1-(1,1-Dioxo-1λ^6-thiomorpholine-4-carbonyl)-piperidine-2-carboxylic acid [4-(2,4-difluoro-phenyl)-thiazol-2-yl]-amide] |  | 22 nM
CC(C)(C)c1cc(NC(=O)[C@@H]2CCCCCN2C(=O)N2CCS(=O)(=O)CC2)no1 [(S)-1-(1,1-Dioxo-1λ^6-thiomorpholine-4-carbonyl)-azepane-2-carboxylic acid (5-tert-butyl-isoxazol-3-yl)-amide] |  | 15 nM
O=C(Nc1nc(-c2ccc(F)c(F)c2)cs1)[C@@H]1CCCCN1CC1CCOCC1 [(S)-1-(Tetrahydro-pyran-4-ylmethyl)-piperidine-2-carboxylic acid [4-(3,4-difluoro-phenyl)-thiazol-2-yl]-amide] |  | 3.6 nM
CCn1nc(NC(=O)[C@@H]2CCCCN2CC2CCOCC2)nc1-c1ccccc1 [(S)-1-(Tetrahydro-pyran-4-ylmethyl)-piperidine-2-carboxylic acid (1-ethyl-5-phenyl-1H-1,2,4-triazol-3-yl)-amide] | 8.6 nM | 
COc1ccc(-c2nsc(NC(=O)[C@@H]3CCCCN3C(=O)N3CCS(=O)(=O)CC3)n2)cc1 [(S)-1-(1,1-Dioxo-1λ^6-thiomorpholine-4-carbonyl)-piperidine-2-carboxylic acid [3-(4-methoxy-phenyl)-[1,2,4]thiadiazol-5-yl]-amide] | 20 nM | 
O=C(Nc1nc2ccc(Cl)cc2s1)[C@@H]1CCCCN1CC1CCOCC1 [(S)-1-(Tetrahydro-pyran-4-ylmethyl)-piperidine-2-carboxylic acid (6-chloro-benzothiazol-2-yl)-amide] | 131 nM | 
O=C(Nc1nc2cc(F)ccc2s1)[C@@H]1CCCCN1C(=O)N1CCS(=O)(=O)CC1 [(S)-1-(1,1-Dioxo-1λ^6-thiomorpholine-4-carbonyl)-piperidine-2-carboxylic acid (5-fluoro-benzothiazol-2-yl)-amide] |  | 56 nM
CC(C)(C)c1cc(NC(=O)[C@@H]2CCCCCN2C2CCOCC2)no1 [(S)-1-(Tetrahydro-pyran-4-yl)-azepane-2-carboxylic acid (5-tert-butyl-isoxazol-3-yl)-amide] |  | 0.18 nM
O=C(Nc1nc2c(F)cccc2s1)[C@@H]1CCCCN1CC1CCOCC1 [(S)-1-(Tetrahydro-pyran-4-ylmethyl)-piperidine-2-carboxylic acid (4-fluoro-benzothiazol-2-yl)-amide] |  | 1.3 nM
CC(C)(C)c1cc(NC(=O)[C@@H]2CCCCN2C(=O)c2ccc(F)cc2)no1 [(S)-1-(4-Fluoro-benzoyl)-piperidine-2-carboxylic acid (5-tert-butyl-isoxazol-3-yl)-amide] |  | 2.2 nM
CC(C)(C)c1cc(NC(=O)C2CN(C(=O)c3ccc(C(F)(F)F)cc3)CCO2)no1 (stereo not shown) [4-(4-Trifluoromethyl-benzoyl)-morpholine-2-carboxylic acid (5-tert-butyl-isoxazol-3-yl)-amide] |  | 85 nM
CC(C)(C)c1cc(NC(=O)C2CCCN(Cc3ccc(Cl)cc3)C2)no1 (stereo not shown) [1-(4-Chloro-benzyl)-piperidine-3-carboxylic acid (5-tert-butyl-isoxazol-3-yl)-amide] |  | 2.7 nM
O=C(Nc1nc(-c2ccc(F)cc2)cs1)[C@@H]1CCCCN1C(=O)N1CCS(=O)(=O)CC1 [(S)-1-(1,1-Dioxo-1λ^6-thiomorpholine-4-carbonyl)-piperidine-2-carboxylic acid [4-(4-fluoro-phenyl)-thiazol-2-yl]-amide] |  | 38 nM
CC(C)(C)c1cc(NC(=O)[C@@H]2CCCCN2C(=O)CN2CCOCC2)no1 [(S)-1-(2-Morpholin-4-yl-acetyl)-piperidine-2-carboxylic acid (5-tert-butyl-isoxazol-3-yl)-amide] | 188 nM | 
CC(C)c1nsc(NC(=O)[C@@H]2CCCCN2CC2CCOCC2)n1 [(S)-1-(Tetrahydro-pyran-4-ylmethyl)-piperidine-2-carboxylic acid (3-isopropyl-1,2,4-thiadiazol-5-yl)-amide] | 208 nM | 
CCn1nc(NC(=O)[C@@H]2CCCCN2C(=O)N2CCS(=O)(=O)CC2)nc1-c1ccccc1 [(S)-1-(1,1-Dioxo-1λ^6-thiomorpholine-4-carbonyl)-piperidine-2-carboxylic acid (1-ethyl-5-phenyl-1H-1,2,4-triazol-3-yl)-amide] | 135 nM | 
CC(C)(C)c1cc(NC(=O)[C@@H]2CCCCN2C(=O)C2CCC(F)(F)CC2)no1 [(S)-1-(4,4-Difluoro-cyclohexanecarbonyl)-piperidine-2-carboxylic acid (5-tert-butyl-isoxazol-3-yl)-amide] |  | 4.6 nM
CC(C)(C)c1csc(NC(=O)[C@@H]2CCCCN2CC2CCOCC2)n1 [(S)-1-(Tetrahydro-pyran-4-ylmethyl)-piperidine-2-carboxylic acid (4-tert-butyl-thiazol-2-yl)-amide] |  | 13 nM
O=C(Nc1ccc(C(F)(F)F)cn1)[C@@H]1CCCCN1C(=O)C1CCC(F)(F)CC1 [(S)-1-(4,4-Difluoro-cyclohexanecarbonyl)-piperidine-2-carboxylic acid (5-trifluoromethyl-pyridin-2-yl)-amide] | 282 nM | 
O=C(Nc1nc2cc(Cl)ccc2s1)[C@@H]1CCCCN1C1CCOCC1 [(S)-1-(Tetrahydro-pyran-4-yl)-piperidine-2-carboxylic acid (5-chloro-benzothiazol-2-yl)-amide] | 206 nM | 
O=C(Nc1nc2cc(Cl)ccc2s1)[C@@H]1CCCCN1CC1CCOCC1 [(S)-1-(Tetrahydro-pyran-4-ylmethyl)-piperidine-2-carboxylic acid (5-chloro-benzothiazol-2-yl)-amide] |  | 0.2 nM
CC(C)(C)c1cc(NC(=O)[C@@H]2CCCCN2Cc2ccc(F)c(F)c2)no1 [(S)-1-(3,4-Difluoro-benzyl)-piperidine-2-carboxylic acid (5-tert-butyl-isoxazol-3-yl)-amide] |  | 0.58 nM
